Tests used:
[1] = tested on: domestic cats with feline chronic gingivostomatitis (FCGS); assay: Stomatitis disease activity index (SDAI) after mucogingival replacement surgery; assay type: in vivo
Text: The stomatitis disease activity index is to score the condition of the subject by the following three aspects respectively and then add three scores to get the index: (1) owner evaluation (total score 0-3): the quality of life including appetite, activity level, grooming behavior, and perceived comfort would be scored by the owner, with a scale of 0-3, 0 is the best, and 3 is the worst; (2) weight (total score 0-3): the change in weight compared to most recent visit, with a scale of 0-3, 0 is an increase of more than 0.5 kg, 1 is an increase of 0.25-0.5 kg, 2 is an increase of 0-0.25 kg, and 3 is weight loss; (3) inflammatory symptoms (total score 0-24): inflammation in 8 different areas of the oral cavity, including maxillary buccal mucosa, mandibular buccal mucosa, maxillary attached gingiva, mandibular attached gingiva, lateral to palatoglossal folds, molar salivary gland, oropharynx, and sublingual area, with scale of 0-3, 0 is none, 1 is mild, 2 is moderate, and 3 is severe.

[2] = tested on: VDR; assay: Immunohistochemistry of inflamed oral mucosal tissue with anti-VDR; assay type: in vivo, domestic cats; settings: after 6-week treatment vs 0th week
Protocol: (§1) The procedure of immunohistochemistry is briefly described as following. All steps are performed on the Leica Bond Max automatic immunohistochemistry machine. The aforementioned inflamed oral mucosal tissues fixed with formalin and embedded in paraffin is sectioned with a thickness of 5 μm, and placed on a glass slide suitable for performing immunohistochemistry. The tissue section is placed in a 50° C. oven for 15 minutes and is dewaxed twice with Bond Dewax Solution for 5 minutes. The tissue section is washed three times with Tris buffered saline (TBS, pH 7.6) for 5 minutes, and then treated with Bond Leica Alcohol for 5 minutes for tissue rehydration. After being washed three times with TBS for 5 minutes, the tissue section is heated at 100° C. with Bond Citrate buffer (pH 6), and the tissue used for detecting VDR is heated for 20 minutes, and the tissue used for detecting LC3B is heated for 40 minutes. After being washed three times with TBS for 5 minutes, the tissue section is reacted with Bond Peroxide solution for 8 minutes. After being washed three times with TBS for 5 minutes, the tissue section is reacted with Bond Protein blocking solution for 10 minutes. After being washed three times with TBS for 5 minutes, the tissue section is reacted with the primary antibodies for 30 minutes at room temperature, wherein the dilution ratio of anti-VDR antibody (ab3508) is 500×, and the dilution ratio of anti-LC3B antibody (ab239416) is 50×. After being washed three times with TBS for 5 minutes, the tissue section is reacted with Bond Post primary solution containing rabbit anti-mouse IgG antibody for 10 minutes. After being washed three times with TBS for 5 minutes, the tissue section is reacted with Bond Post primary solution containing Poly-HPR IgG for 10 minutes. After being washed three times with TBS for 5 minutes, the tissue section is reacted twice with Bond DAB solution for 3 minutes for coloration. […] The staining intensity and frequency of oral mucosal epithelial cells in the tissues are evaluated by the method provided by Shackelford. […]

[3] = tested on: LC3B; assay: Immunohistochemistry of inflamed oral mucosal tissue with anti-LC3B; assay type: in vivo, domestic cats; settings: after 6-week treatment vs 0th week
Protocol: as §1

[4] = 0th week, vitamin D 200 ng/kg oral + 5 mg/kg deoxytetracycline (control: deoxytetracycline only), 5 mg/kg
[5] = 6th week, vitamin D 200 ng/kg oral + 5 mg/kg deoxytetracycline (control: deoxytetracycline only), 5 mg/kg

| Substance | stomatitis disease activity index (SDAI) score [1, 4] | stomatitis disease activity index (SDAI) score [1, 5] | VDR in the inflamed oral mucosal tissue (IHC intensity and frequency) [2] | LC3B in the inflamed oral mucosal tissue (IHC intensity and frequency) [3] | stomatitis disease activity index (SDAI) score ([1]; 0th week, vitamin D 200 ng/kg oral + 5 mg/kg deoxytetracycline (control: deoxytetracycline only)) | stomatitis disease activity index (SDAI) score ([1]; 2nd week, 5 mg/kg deoxytetracycline) | stomatitis disease activity index (SDAI) score ([1]; 6th week, vitamin D 200 ng/kg oral + 5 mg/kg deoxytetracycline (control: deoxytetracycline only)) |
| --- | --- | --- | --- | --- | --- | --- | --- |
| vitamin D [water-soluble vitamin D] | 17.67 | 13.92 | remains unchanged | increases |  |  |  |
| deoxytetracycline [control group (A)] |  |  | decreases | basically maintains a constant value | 11.44 | 9.19 | 11.22 |
| vitamin D [fat-soluble vitamin D] | 13 | 11.5 | increases | increases |  |  |  |
